Assay results published in patent US20060111778A1, “Methods of promoting healing of cartilage defects and method of causing stem cells to differentiate by the articular chondrocyte pathway” (priority 2004, published 2006).

Test system: bone marrow-derived stem cells (MSCs)
Assay: culture of bone marrow-derived stem cells (MSCs) with cartilage fragments, with or without TGF-β1
Type: cell-based, horse
Experimental: Bone marrow aspirates were obtained from the tuber coxae of 3 normal horses (3-years-old) to attain bone marrow-derived stem cells (MSCs). Aspirates were cultured in media, pre-plated for purification, and grown in monolayer culture flasks for 2-3 weeks until a confluent monolayer culture of MSCs was obtained. Confluent monolayers were expanded for another 2-3 weeks until a minimum of 26×10^6 cells were attained.
Cartilage was collected sterilely from the same horses and freeze-thawed 3 times to ensure all native cells within the cartilage were dead. Prior to the start of the experiment the cartilage was placed in liquid nitrogen and pulverized until it became a fine powder. Then the cartilage was weighed into aliquots to make 2.5% and 10% of cartilage weight to volume in media.
A 24-well, non-adherent plate contained treatment groups of 1×10^6 cells only, 1×10^6 cells with 2.5% cartilage, 1×10^6 cells with 10% cartilage, 2.5% cartilage only, and 10% cartilage only to make 5 treatment groups. The cells-only treatment group was the baseline positive control. The 2.5% and 10% cartilage fragments without cells served as the negative controls and, if necessary, for baseline values of proteoglycan and DNA content of the matrix provided. […]

Substance: TGF-β1: transforming growth factor β type 1, growth factor supplemented to media at 5 ng/ml
- MSC survival and chondrogenesis: necessary
- DNA content by day 14 (day 14, 5 ng/ml TGF-β1): significantly increasing
